Experimental data as given in patent publication US8946302B2, “Selective sigma-1 receptor ligands” (Wisconsin Alumni Research Foundation, priority 2008, dated 2015).
Values joined by “and” are separate entries in the source; they are usually repeats but may differ in a detail not shown here. Equal entries are not always repeated. Where two headings read alike, the source gives them in different places.

Tests used:
[1] = target: T1, purified sigma-1 receptor (Cavia porcellus, UniProt Q60492); test: Competitive displacement of [3H]-(+)-pentazocine at the pure sigma-1 receptor; format: binding, guinea pig; conditions: [3H]-(+)-pentazocine 10 nM, read-out: Ki Pure σ-1R
T1 construct: made in house; host or cells: E. coli BL21 DE3
Experimental: A guinea pig sigma-1 receptor was purified as previously described (Ramachandran et al., Protein Expr. Purif., 2007. 51(2): 283-92). The pMal P2X plasmid (New England Biolabs) encoding the guinea pig sigma-1 receptor on the C-terminus of the E. coli Maltose Binding Protein was used for purification. The sigma-1 receptor on its C-terminus carried a hexa-histadine epitope tag. Protein was expressed in the E. coli strain BL21 DE3 (Novagen) with 0.6 mM IPTG. The E. coli pellet was sonicated and centrifuged at 100,000 g for 1 hour to separate the particulate and soluble fractions. The particulate fraction was extracted with Triton X-100, centrifuged and the extract was loaded onto an amylose resin (New England Biolabs, E-802). After washing the resin with buffer containing 0.5% Triton X-100, the MBP-sigma-1 receptor fusion protein was eluted with buffer containing 10 mM maltose.
The MBP-sigma-1-receptor fusion protein was cleaved with Factor Xa protease (Novagen) at room temperature for 24-48 hours and the cleavage was monitored with SDS-polyacrylamide gel electrophoresis. The sigma-1 receptor from the Factor Xa cleavage was purified with a HIS-Select HC Nickel affinity gel (Sigma-Aldrich P6611) in a batch format. The resin was washed with buffer containing 0.5% Triton X-100 detergent and the beads were separated by a brief centrifugation at 4000 rpm in a microcentrifuge. After washing to remove MBP, the pure sigma-1 receptor was eluted in buffer containing 250 mM imidazole.
To remove the undigested MBP-sigma-1 receptor fusion protein that is carried over in the Ni^2+ purification, the eluate from the Ni^2+ purification was incubated with Anti-MBP antibody conjugated to agarose (Vector Laboratories, Burlingame, Calif.) at 4° C. for 18-24 hours. The beads were separated by centrifugation and the supernatant contained the pure sigma-1 receptor.
Competition ligand binding to the pure sigma-1 receptor was performed as previously described. […] After incubation at 30° C. for 60 minutes, the reaction was terminated by rapid filtration through glass fiber filters (Whatman GF/B), using a Brandel cell harvester (Brandel, Gaithersburg, Md.). The glass fiber filters were pre-soaked in 0.5% polyethyleneimine (PEI) for at least 1 hour at room temperature (˜23° C.). Filters were washed 4 times with 4 mL of ice-cold 50 mM Tris-C1, pH 8.0. Radioactivity was quantified by liquid scintillation counting using a Packard model 1600 CA scintillation counter.

[2] = target: T2, sigma-1 receptor (Cavia porcellus, UniProt Q60492); test: Affinity for the sigma-1 receptor (Table 3); format: binding; set-up: from tissue
[3] = tested on: tumor cell lines; test: Cytotoxicity assays, various tumor cell lines (statements in words); format: cell-based, human
Experimental: Because sigma-1 receptors are overexpressed in numerous tumor cell lines, which include breast cancer, lung carcinoma, renal carcinoma, colon carcinoma, sarcoma, brain tumors, melanoma, glioblastoma, neuroblastoma, and prostate cancer, the ability of the compounds to inhibit the growth of various tumor cell lines were tested.
(§1) Multi-plex cytotoxicity assays were performed by the Keck-UWCCC Small Molecule Screening Facility (Madison, Wis.). Specific methodology can be found online at http://hts.wisc.edu/Resources.htm#mpa.

[4] = target: T2, sigma-1 receptor; test: Sigma-1 competitive binding, (+)-[3H]pentazocine, guinea pig liver membranes (Example 6); set-up: from tissue; host or cells: guinea pig liver membranes;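 further: compounds tested over serial concentrations, 45 min incubation at 30 °C with membrane preparations, read-out is displacement of bound radioligand from the receptor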
Experimental: (§2) Minced frozen rat livers or guinea pig livers (65 g) were thawed in 100 mL homogenization buffer (10 mM phosphate buffer pH 7.4 containing 0.32M sucrose, 1 M MgSO4, 0.5 M EGTA, 1 mM phenylmethylsulphonyl fluoride (PMSF), 10 μg/mlleupeptin, 1 μg/ml pepstatin A, 10 μg/ml p-toluenesulfonyl-L-arginine methyl ester (TAME) and then homogenized on ice with a Brinkman polytron homogenizer (setting 6, 4 bursts of 10 second each) followed by a glass homogenizer (Teflon pestle by 6 slow passes at 3,000 rpm). The homogenized tissues were then centrifuged at 17,000 g for 10 minutes. The supernatants were re-centrifuged at 100,000 g for 1 hour. The microsomal pellets were resuspended in homogenization buffer, snap frozen with dry ice-ethanol, and stored at −80° C. at a final protein concentration of 20 mg/mL.
(§3) Assays for sigma-1 were performed using 10 nM (+)-[^3H]pentazocine in guinea pig liver homogenates (25 μg/well) incubated at 30° C. for 1 hour with several concentrations of competing ligands. After incubation, membranes were harvested on a 0.5% PEI-treated Whatman GF/B filters using a Brandel Cell Harvester. (+)-[^3H]pentazocine binding was determined by liquid scintillation counting. […] Serial concentrations of the compounds evaluated were added to the reactions for 45 minutes at 30° C. and the samples vacuum filtered through 0.5% polyethyleneimine (PEI) treated Whatman GF/B as described above to measure displacement of the radioligands from the sigma receptor subtypes.

[5] = target: T3, sigma-2 receptor (Rattus norvegicus, UniProt Q5U3Y7); test: Sigma-2 competitive binding, [3H]-DTG with (+)-pentazocine, rat liver membranes (Example 6); set-up: from tissue; host or cells: rat liver membranes
T3 sequence (Q5U3Y7 1-176): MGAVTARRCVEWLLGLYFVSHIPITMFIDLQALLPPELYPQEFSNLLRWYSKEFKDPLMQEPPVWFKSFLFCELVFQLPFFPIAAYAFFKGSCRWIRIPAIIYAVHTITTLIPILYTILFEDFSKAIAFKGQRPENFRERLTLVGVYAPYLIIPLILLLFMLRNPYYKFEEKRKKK
Experimental: as §2, §3

[6] = tested on: HCT-45; test: Cytotoxicity assay HCT-45; format: cell-based; conditions: Homo sapiens, HU Colorectal, read-out: IC50 (SE) growth inhibition
Experimental: as §1

[7] = tested on: HT-29; test: Cytotoxicity assay HT-29; format: cell-based; conditions: Homo sapiens, HU Colorectal, read-out: IC50 (SE) growth inhibition
Experimental: as §1

[8] = tested on: SKOV-3; test: Cytotoxicity assay SKOV-3; format: cell-based; conditions: Homo sapiens, SK-OV-3, HU Ovarian, read-out: IC50 (SE) growth inhibition
Experimental: as §1

[9] = tested on: MCP10A; test: Cytotoxicity assay MCP10A; format: cell-based; conditions: Homo sapiens, HU Breast, read-out: IC50 (SE) growth inhibition
Experimental: as §1

[10] = tested on: Du145; test: Cytotoxicity assay Du145; format: cell-based; conditions: Homo sapiens, DU-145, HU Prostate, read-out: IC50 (SE) growth inhibition
Experimental: as §1

[11] = tested on: MCF7; test: Cytotoxicity assay MCF7; format: cell-based; conditions: Homo sapiens, HU Breast, read-out: IC50 (SE) growth inhibition
Experimental: as §1

[12] = tested on: MB-MDA-231; test: Cytotoxicity assay MB-MDA-231; format: cell-based; conditions: Homo sapiens, HU Breast, read-out: IC50 (SE) growth inhibition
Experimental: as §1

[13] = tested on: A549; test: Cytotoxicity assay A549; format: cell-based; conditions: Homo sapiens, HU lung, read-out: IC50 (SE) growth inhibition
Experimental: as §1

[14] = tested on: NCI-H460; test: Cytotoxicity assay NCI-H460; format: cell-based; conditions: Homo sapiens, HU lung, read-out: IC50 (SE) growth inhibition
Experimental: as §1

[15] = tested on: SF268; test: Cytotoxicity assay SF268; format: cell-based; conditions: Homo sapiens, SF-268, HU CNS, read-out: IC50 (SE) growth inhibition
Experimental: as §1

[16] = tested on: HI299; test: Cytotoxicity assay HI299; format: cell-based; conditions: Homo sapiens, HU Lung, read-out: IC50 (SE) growth inhibition
Experimental: as §1

[17] = guinea pig liver membranes, n = 3, read-out: Sigma 1 KD values
[18] = rat liver membranes, n = 3, read-out: Sigma2 KD values

T2 sequence (Q60492 whole entry): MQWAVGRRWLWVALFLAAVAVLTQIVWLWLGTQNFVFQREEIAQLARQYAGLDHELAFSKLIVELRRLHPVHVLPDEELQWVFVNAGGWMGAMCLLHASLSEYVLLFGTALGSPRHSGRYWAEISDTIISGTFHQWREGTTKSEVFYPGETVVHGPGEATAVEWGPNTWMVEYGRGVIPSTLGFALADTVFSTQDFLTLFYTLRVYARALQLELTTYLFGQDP
T1 sequence (Q60492 whole entry): as above

CCCCCCCCCCCCCCCCN [Hexadecylamine]
Ki [1]: 2.7 µM and 3 µM

CCCCCCCCCCCCCCCCCCN [Stearylamine]
Ki [1]: 8.5 µM and 8 µM

CCCN(CCC)CCc1c[nH]c2ccccc12 [DPT, reference compound]
Kd [2]: 1.6 µM

CCCCCCN [Hexylamine]
Ki [1]: 37.5 µM and 37 µM

CCCNCCc1ccc(F)cc1 [HD7]
Kd [2]: 0.091 µM

CCCN(CCCc1ccc(F)cc1)CCc1ccc(N=[N+]=[N-])c(I)c1 [HD5]
cytotoxicity / tumor cell growth inhibition [3]: potent cell growth inhibitor of both MB-MDA-231 and MCF7

CCCCCCCCCCCCNCCCc1ccccc1 [UC3]
Kd ([2]; read-out: Sigma-1 KD): 0.092 µM

NCCCc1ccccc1 [Compound 2]
Ratio (σ2/σ1) [4]: 3.92
Kd [4, 17]: 68.9 µM
Kd [5, 18]: 270 µM

CCCCN(CCCC)CCCc1ccc(F)cc1 [Compound 10, N,N-Dibutyl-3-(4-fluorophenyl)propylamine]
IC50 [6]: > 100 µM
IC50 [7]: > 100 µM
IC50 [8]: 56.2 µM
IC50 [9]: > 100 µM
Ratio (σ2/σ1) [4]: 38.7
Kd [4, 17]: 0.0177 µM
IC50 [10]: > 100 µM
Kd [5, 18]: 0.685 µM
IC50 [11]: > 100 µM
IC50 [12]: > 100 µM
IC50 [13]: > 100 µM
IC50 [14]: > 100 µM
IC50 [15]: > 100 µM
IC50 [16]: > 100 µM

CCCCCCCNCCCc1ccccc1 [UC1]
Kd ([2]; read-out: Sigma-1 KD): 0.012 µM

CCCCN(CCCC)CCCc1ccc([N+](=O)[O-])cc1 [Compound 11, N,N-Dibutyl-3-(4-nitrohenyl)propylamine]
IC50 [6]: > 100 µM
IC50 [7]: > 100 µM
IC50 [8]: 27.9 µM
IC50 [9]: > 100 µM
Ratio (σ2/σ1) [4]: 1347
Kd [4, 17]: 0.0003 µM
IC50 [10]: 32.7 µM
Kd [5, 18]: 0.404 µM
IC50 [11]: 22.4 µM
IC50 [12]: 57.1 µM
cytotoxicity / tumor cell growth inhibition [3]: robustly inhibits growth in MB-MDA231, MCF7, Du145, and NCI-H460 cell lines in addition to SKOV-3 cells
IC50 [13]: > 100 µM
IC50 [14]: 40.5 µM
IC50 [15]: > 100 µM
IC50 [16]: > 100 µM

CCCC[N+](CCCC)(CCCC)CCCC [Compound 3]
Kd [4]: 54.7 µM
Ratio (σ2/σ1) [4]: 4.90
Kd [5]: 268 µM

CCCN(Cc1ccc([N+](=O)[O-])cc1)C(=O)CCc1ccc(F)cc1 [Compound 13, N-Propyl-N-(4-nitro-benzyl)-3-(4-fluorophenyl)propionamide]
Kd [5, 18]: 236 µM

CCCCN(CCCC)CCCc1ccc(F)cc1 [HD1]
Kd ([2]; read-out: Sigma-1 KD): 0.0177 µM

CCCCN(CCCC)CCCC [Compound 6]
Ratio (σ2/σ1) [4]: 6.41
Kd [4, 17]: 7 µM
Kd [5, 18]: 44.8 µM

CCCN(CCCc1ccc([N+](=O)[O-])cc1)CCc1ccc(N)cc1 [Compound 18, N-Propyl-N-4-aminophenylethyl-3-(4-nitrophenyl)propylamine]
IC50 [6]: > 100 µM
IC50 [7]: > 100 µM
IC50 [8]: > 100 µM
IC50 [9]: > 100 µM
Ratio (σ2/σ1) [4]: 13.93 ^
IC50 [10]: > 100 µM
Kd [5, 18]: 0.0836 µM
IC50 [11]: 86.1 µM
IC50 [12]: > 100 µM
IC50 [13]: > 100 µM
IC50 [14]: > 100 µM
IC50 [15]: > 100 µM
IC50 [16]: > 100 µM
